Assay results from ChEMBL document CHEMBL1123584, “Xanthine functionalized congeners as potent ligands at A2-adenosine receptors” (J Med Chem, 1987).
Each block holds one compound with its values, some of them ahead of it.

Key:
[1] = Partition coefficient (logP); type: physicochemical; settings: octanol/water
[2] = target: T1, Adenosine A2 receptor (Homo sapiens) (UniProt P29275+P29274); assay: Antagonism of NECA-induced stimulation of adenylate cyclase activity in human platelet membranes at A2-adenosine receptor; value ranges from 17-30; type: functional, cell membranes
[3] = target: T1, Adenosine A2 receptor (Homo sapiens); assay: Antagonism of NECA-induced stimulation of adenylate cyclase activity in human platelet membranes at A2-adenosine receptor; value ranges from 106-173; type: functional, cell membranes
[4] = target: T1, Adenosine A2 receptor (Homo sapiens); assay: Antagonism of NECA-induced stimulation of adenylate cyclase activity in human platelet membranes at A2-adenosine receptor; value ranges from 100-540; type: functional, cell membranes
Adenosine receptor A1 = target: T2, Adenosine receptor A1 (Rattus norvegicus, UniProt P25099); assay: Inhibition of [3H]- PIA binding at adenosine A1 receptor on rat cerebral cortex membranes.; type: cell membranes, Membrane
T2 sequence (P25099 whole entry): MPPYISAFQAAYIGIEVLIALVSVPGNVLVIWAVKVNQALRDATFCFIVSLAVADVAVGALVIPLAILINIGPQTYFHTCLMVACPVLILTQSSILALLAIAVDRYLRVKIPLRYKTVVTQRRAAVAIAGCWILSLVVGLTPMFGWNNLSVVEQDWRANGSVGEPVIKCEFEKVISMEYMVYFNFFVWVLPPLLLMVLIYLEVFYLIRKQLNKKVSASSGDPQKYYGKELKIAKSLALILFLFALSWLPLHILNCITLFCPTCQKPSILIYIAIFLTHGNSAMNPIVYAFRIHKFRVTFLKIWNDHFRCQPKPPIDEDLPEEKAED

[5] = target: T1, Adenosine A2 receptor (Homo sapiens); assay: Antagonism of NECA-induced stimulation of adenylate cyclase activity in human platelet membranes at A2-adenosine receptor; value ranges from […]-[…]; type: functional, cell membranes
[6] = target: T1, Adenosine A2 receptor (Homo sapiens); assay: Antagonism of NECA-induced stimulation of adenylate cyclase activity in human platelet membranes at A2-adenosine receptor; value ranges from 35-40; type: functional, cell membranes
[7] = target: T1, Adenosine A2 receptor (Homo sapiens); assay: Antagonism of NECA-induced stimulation of adenylate cyclase activity in human platelet membranes at A2-adenosine receptor; type: functional, cell membranes
[8] = target: T1, Adenosine A2 receptor (Homo sapiens); assay: Antagonism of NECA-induced stimulation of adenylate cyclase activity in human platelet membranes at A2-adenosine receptor; value ranges from 75-370; type: functional, cell membranes
[9] = target: T1, Adenosine A2 receptor (Homo sapiens); assay: Antagonism of NECA-induced stimulation of adenylate cyclase activity in human platelet membranes at A2-adenosine receptor; value ranges from 30-54; type: functional, cell membranes
[10] = target: T1, Adenosine A2 receptor (Homo sapiens); assay: Antagonism of NECA-induced stimulation of adenylate cyclase activity in human platelet membranes at A2-adenosine receptor; value ranges from 15-51; type: functional, cell membranes
[11] = target: T1, Adenosine A2 receptor (Homo sapiens); assay: Antagonism of NECA-induced stimulation of adenylate cyclase activity in human platelet membranes at A2-adenosine receptor; value ranges from 54-98; type: functional, cell membranes

- Kb [4]: 230 nM
SMILES: CCn1c(=O)c2nc(-c3ccc(OCC(=O)NCCNC(=O)C(CCCCNC(=O)OCc4ccccc4)NC(=O)OC(C)(C)C)cc3)[nH]c2n(CC)c1=O (stereo not drawn)

- Ki (Adenosine receptor A1): 0.87 nM
SMILES: CCCn1c(=O)c2[nH]c(-c3ccc(OCC(=O)NCCNC(=O)[C@@H](N)CCCCN)cc3)nc2n(CCC)c1=O

- Kb [5]: 210 nM
SMILES: CCn1c(=O)c2nc(-c3ccc(OCC(=O)Nc4ccc(CC(=O)OC)cc4)cc3)[nH]c2n(CC)c1=O

- Kb [6]: 37 nM
SMILES: CCCn1c(=O)c2nc(-c3ccc(OCC(=O)NCCNC(=O)[C@@H](N)CCCCN)cc3)[nH]c2n(CCC)c1=O

- Kb [10]: 28 nM
SMILES: CCn1c(=O)c2nc(-c3ccc(OCC(=O)Nc4ccc(CC(=O)NCCN)cc4)cc3)[nH]c2n(CC)c1=O

- Ki (Adenosine receptor A1): 140 nM
SMILES: CCOC(=O)COc1ccc(-c2nc3c(=O)n(CC)c(=O)n(CC)c3[nH]2)cc1

- Ki (Adenosine receptor A1): 13 nM
SMILES: CCCn1c(=O)c2nc(-c3ccc(OCC(=O)OCC)cc3)[nH]c2n(CCC)c1=O

Further lines, the compound ahead of its results:

SMILES: Cn1c(=O)c2[nH]c(-c3ccc(OCC(=O)NCCN)cc3)nc2n(C)c1=O
- logP [1]: -0.63

SMILES: CCn1c(=O)c2nc(-c3ccc(OCC(=O)NCCNC(=O)[C@@H](N)CCCCN)cc3)[nH]c2n(CC)c1=O
- logP [1]: -1.2
- Kb [2]: 23 nM

SMILES: CCCn1c(=O)c2nc(-c3ccc(OCOC(=O)CC)cc3)[nH]c2n(CCC)c1=O
- Kb [3]: 135 nM

SMILES: Cn1c(=O)c2nc(-c3ccccc3)[nH]c2n(C)c1=O
- Kb [7]: 1900 nM

SMILES: CCC(=O)OCOc1ccc(-c2nc3c(=O)n(CC)c(=O)n(CC)c3[nH]2)cc1
- Kb [8]: 170 nM

SMILES: Cn1c(=O)c2nc(-c3ccc(OCC(=O)NCCN)cc3)[nH]c2n(C)c1=O
- Kb [9]: 40 nM

SMILES: CCn1c(=O)c2nc(-c3ccc(OCC(=O)NCCN)cc3)[nH]c2n(CC)c1=O
- Kb [5]: 21 nM

SMILES: CCn1c(=O)c2[nH]c(-c3ccc(OCC(=O)NCCN)cc3)nc2n(CC)c1=O
- logP [1]: -0.06

SMILES: CCCn1c(=O)c2[nH]c(-c3ccc(OCC(=O)NCCN)cc3)nc2n(CCC)c1=O [XANTHINE AMINE CONGENER]
- logP [1]: 0.81

SMILES: CCn1c(=O)c2nc(-c3ccc(OCC(=O)OC(C)C)cc3)[nH]c2n(CC)c1=O
- Ki (Adenosine receptor A1): 90 nM
- Kb [11]: 73 nM

SMILES: CCn1c(=O)c2nc(-c3ccccc3)[nH]c2n(CC)c1=O
- Kb [7]: 210 nM

SMILES: Cn1c(=O)c2nc(-c3ccc(OCC(=O)Nc4ccc(CC(=O)NCCN)cc4)cc3)[nH]c2n(C)c1=O
- logP [1]: -0.05
- Kb [5]: 63 nM

SMILES: CCn1c(=O)c2nc(-c3ccc(OCC(=O)Nc4ccc(C)cc4)cc3)[nH]c2n(CC)c1=O
- Kb [5]: 100 nM
